In patent publication US11571423B2, “Small molecule modulators of human sting” (Curadev Pharma Limited, priority 2017, dated 2023):
pEC50: −log10 of the molar value.

Molecular target: hSTING(R232) (Homo sapiens, UniProt Q86WV6, H232R)
Test: Luciferase reporter assay in HEK293T-hSTING-Luciferase cells, R232 (wild type) human STING
Format: cell-based
Details: 20 hr stimulation, read-out: R232 human activity (EC50 range)
Source text: Stable Cell Line Generation • a) Stable STING expressing cells—Stable HEK293T STING-expressing cell lines were generated using plasmids purchased from Invivogen, CA, USA, that contain STING cDNA cloned into the pUNO-1 vector under hEF1-HTLV promoter and containing the Blasticidin selection cassette. The plasmids hSTING(R232), hSTING(H232), hSTING(HAQ) were directly procured from Invivogen while hSTING (AQ) and hSTING (Q) were derived from hSTING(HAQ) and hSTING (R232) plasmids respectively by using a PCR based site directed mutagenesis method. These vectors were individually transfected into HEK293T cells using Lipofectamine (Invitrogen) and transfected cells were selected under Blasticidin selection. These transfected cells were further subjected to clonal selection using the limiting dilution method to obtain clonally pure populations of HEK cells transfected with each of the above mentioned human STING variants. Only those clones were selected in which ligand independent activation of STING was minimal. • b) Stable Luciferase reporter gene expressing cells—Stable HEK293T Luciferase reporter gene expressing cell lines were generated using pCDNA4 plasmids under an IRF-inducible promoter. This promoter is comprised of five tandem interferon-stimulated response elements (ISRE) fused to an ISG54 minimal promoter. This vector was transfected into HEK293T cells using Lipofectamine (Invitrogen) and transfected cells were selected under Zeocin selection. These transfected cells were further subjected to clonal selection using the limiting dilution method to obtain clonally pure populations of HEK cells transfected the Luciferase reporter construct. Only those clones were selected in which ligand independent induction of luciferase was minimal.
5×10^5 clonally selected HEK293T-hSTING-Luciferase cells were seeded in 384-well plates in growth medium and stimulated with novel compounds. After 20 hr of stimulation supernatant were removed and secretary reporter gene activity were measured using the Quanti-Luc detection system (Invivogen) on a Spectramax i3X luminometer.
In the tables below, EC50 value ranges for exemplary compounds are given.
All compounds were first tested in a primary screen to obtain a ‘fold-induction’ over baseline levels of protein activity.

hSTING(R232), sequence (Q86WV6 whole entry H232R): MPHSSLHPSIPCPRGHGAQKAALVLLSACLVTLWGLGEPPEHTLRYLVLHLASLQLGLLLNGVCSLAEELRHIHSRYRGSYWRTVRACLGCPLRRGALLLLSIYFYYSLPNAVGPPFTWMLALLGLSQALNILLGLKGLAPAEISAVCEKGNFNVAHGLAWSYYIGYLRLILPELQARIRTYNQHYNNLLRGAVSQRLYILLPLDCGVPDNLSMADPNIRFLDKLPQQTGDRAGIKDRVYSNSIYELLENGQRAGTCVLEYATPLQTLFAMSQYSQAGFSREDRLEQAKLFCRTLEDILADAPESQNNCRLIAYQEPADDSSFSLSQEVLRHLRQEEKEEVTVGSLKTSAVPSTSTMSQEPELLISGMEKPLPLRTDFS

SMILES | pEC50
CN1Cc2ccc(C(=O)NCc3c(F)cc(F)cc3F)cc2N(Cc2cc(C3CC3)no2)C1=O [Example 64, 1-((3-cyclopropylisoxazol-5-yl)methyl)-3-methyl-2-oxo-N-(2,4,6-trifluorobenzyl)-1,2,3,4-tetrahydroquinazoline-7-carboxamide] | < 5.00
C[C@H]1c2ccc(C(=O)NCc3c(F)cc(F)cc3F)cc2N(Cc2c(F)ccc(C(=O)O)c2F)C(=O)N1C [Example 142, (S)-3-((3,4-Dimethyl-2-oxo-7-((2,4,6-trifluorobenzyl)carbamoyl)-3,4-dihydroquinazolin-1(2H)-yl)methyl)-2,4-difluorobenzoic acid] | < 5.00
CN1Cc2ccc(C(=O)NCc3cccc4c3OCO4)cc2N(Cc2c(F)cccc2Cl)C1=O [Example 43, N-(benzo[d][1,3]dioxol-4-ylmethyl)-1-(2-chloro-6-fluorobenzyl)-3-methyl-2-oxo-1,2,3,4-tetrahydroquinazoline-7-carboxamide] | < 5.00
CN1Cc2ccc(C(=O)NCc3c(F)cc(F)cc3F)cc2N(Cc2cn(C)nn2)C1=O [Example 55, 3-methyl-1-((1-methyl-1H-1,2,3-triazol-4-yl)methyl)-2-oxo-N-(2,4,6-trifluorobenzyl)-1,2,3,4-tetrahydroquinazoline-7-carboxamide] | < 5.00
O=C(NCc1c(F)cc(F)cc1F)c1ccc2c(c1)N(Cc1cc(F)cc(F)c1)C(=O)N(C1CC1)C2 [Example 3, 3-cyclopropyl-1-(3.5-difluorobenzyl)-2-oxo-N-(2,4,6-trifluorobenzyl)-1,2,3,4-tetrahydroquinazoline-7-carboxamide] | < 5.00
C[C@@H]1c2ccc(C(=O)NCc3c(F)cc(F)cc3F)cc2N(Cc2c(O)cccc2F)C(=O)N1C [Example 172, (R)-1-(2-fluoro-6-hydroxybenzyl)-3,4-dimethyl-2-oxo-N-(2,4,6-trifluorobenzyl)-1,2,3,4-tetrahydroquinazoline-7-carboxamide] | 5.00 to 6.00
CN1Cc2ccc(C(=O)NCc3ccc4c(c3)CC(=O)N4)cc2N(Cc2c(F)cccc2Cl)C1=O [Example 59, 1-(2-chloro-6-fluorobenzyl)-3-methyl-2-oxo-N-((2-oxoindolin-5-yl)methyl)-1,2,3,4-tetrahydroquinazoline-7-carboxamide] | < 5.00
COc1cccc(F)c1CNC(=O)c1ccc2c(c1)N(Cc1c(F)cccc1Cl)C(=O)N(C)[C@H]2C [Example 245, (S)-1-(2-chloro-6-fluorobenzyl)-N-(2-fluoro-6-methoxybenzyl)-3,4-dimethyl-2-oxo-1,2,3,4-tetrahydroquinazoline-7-carboxamide] | 5.00 to 6.00
O=C(NCc1c(F)cc(F)cc1F)c1ccc2c(c1)N(Cc1cc(F)cc(F)c1)C(=O)NC2 [Example 18, 1-(3,5-difluorobenzyl)-2-oxo-N-(2,4,6-trifluorobenzyl)-1,2,3,4-tetrahydroquinazoline-7-carboxamide] | 5.00 to 6.00
COc1cc(F)ccc1CNC(=O)c1ccc2c(c1)N(Cc1c(F)cccc1Cl)C(=O)N(C)[C@H]2C [Example 247, (S)-1-(2-chloro-6-fluorobenzyl)-N-(4-fluoro-2-methoxybenzyl)-3,4-dimethyl-2-oxo-1,2,3,4-tetrahydroquinazoline-7-carboxamide] | 5.00 to 6.00
CN1Cc2ccc(C(=O)NCc3ccc4ccoc4c3)cc2N(Cc2c(F)cccc2Cl)C1=O [Example 52, N-(benzofuran-6-ylmethyl)-1-(2-chloro-6-fluorobenzyl)-3-methyl-2-oxo-1,2,3,4-tetrahydroquinazoline-7-carboxamide] | 5.00 to 6.00
CN1Cc2ccc(C(=O)NCc3ccccc3F)cc2N(Cc2c(F)cccc2Cl)C1=O [Example 30, 1-(2-chloro-6-fluorobenzyl)-N-(2-fluorobenzyl)-3-methyl-2-oxo-1,2,3,4-tetrahydroquinazoline-7-carboxamide] | 5.00 to 6.00
C[C@H]1c2ccc(C(=O)NCc3c(O)cccc3F)cc2N(Cc2c(F)cccc2Cl)C(=O)N1C [Example 251, (S)-1-(2-chloro-6-fluorobenzyl)-N-(2-fluoro-6-hydroxybenzyl)-3,4-dimethyl-2-oxo-1,2,3,4-tetrahydroquinazoline-7-carboxamide] | 5.00 to 6.00
C[C@H]1c2ccc(C(=O)NCc3ccc(F)cc3O)cc2N(Cc2c(F)cccc2Cl)C(=O)N1C [Example 253, (S)-1-(2-chloro-6-fluorobenzyl)-N-(4-fluoro-2-hydroxybenzyl)-3,4-dimethyl-2-oxo-1,2,3,4-tetrahydroquinazoline-7-carboxamide] | 5.00 to 6.00
O=C(NCc1c(F)cc(F)cc1F)c1ccc2c(c1)N(Cc1c(F)cccc1Cl)C(=O)N(c1ncccn1)C2 [Example 21, 1-(2-chloro-6-fluorobenzyl)-2-oxo-3-(pyrimidin-2-yl)-N-(2,4,6-trifluorobenzyl)-1,2,3,4-tetrahydroquinazoline-7-carboxamide] | < 5.00
CN1Cc2ccc(C(=O)NCc3cccc4c3OCCO4)cc2N(Cc2c(F)cccc2Cl)C1=O [Example 44, l-(2-chloro-6-fluorobenzyl)-N-((2,3-dihydrobenzo[b][1,4]dioxin-5-yl)methyl)-3-methyl-2-oxo-1,2,3,4-tetrahydroquinazoline-7-carboxamide] | < 5.00
Cc1ccc(-c2nc(CN3C(=O)N(C)Cc4ccc(C(=O)NCc5c(F)cc(F)cc5F)cc43)c(C)o2)cc1 [Example 40, 3-methyl-1-((5-methyl-2-(p-tolyl)oxazol-4-yl)methyl)-2-oxo-N-(2,4,6-trifluorobenzyl)-1,2,3,4-tetrahydroquinazoline-7-carboxamide] | < 5.00

Continued, values first:

pEC50 | SMILES
5.00 to 6.00 | CN1Cc2ccc(C(=O)NCc3c(F)cc(F)cc3F)cc2N(Cc2cc(F)cc(F)c2)S1(=O)=O [Example 70, 1-(3,5-difluorobenzyl)-3-methyl-N-(2,4,6-trifluorobenzyl)-3,4-dihydro-1H-benzo[c][1,2,6]thiadiazine-7-carboxamide 2,2-dioxide]
> 6.00 | C[C@H]1c2ccc(C(=O)NCc3c(F)cc(F)cc3F)cc2N(Cc2c(OCCOP(=O)(O)O)ccc(F)c2F)C(=O)N1C [Example 91, (S)-2-(2-((3,4-dimethyl-2-oxo-7-((2,4,6-trifluorobenzyl)carbamoyl)-3,4-dihydroquinazolin-1(2H)-yl)methyl)-3,4-difluorophenoxy)ethyl dihydrogen phosphate]
5.00 to 6.00 | COc1cc(F)cc(CNC(=O)c2ccc3c(c2)N(Cc2c(F)cccc2Cl)C(=O)N(C)[C@H]3C)c1 [Example 248, (S)-1-(2-chloro-6-fluorobenzyl)-N-(3-fluoro-5-methoxybenzyl)-3,4-dimethyl-2-oxo-1,2,3,4-tetrahydroquinazoline-7-carboxamide]
5.00 to 6.00 | COc1cccc(CNC(=O)c2ccc3c(c2)N(Cc2c(F)cccc2Cl)C(=O)N(C)[C@H]3C)c1F [Example 249, (S)-1-(2-chloro-6-fluorobenzyl)-N-(2-fluoro-3-methoxybenzyl)-3,4-dimethyl-2-oxo-1,2,3,4-tetrahydroquinazoline-7-carboxamide]
> 6.00 | C[C@H]1c2ccc(C(=O)NCc3cccc(O)c3F)cc2N(Cc2c(F)cccc2Cl)C(=O)N1C [Example 267, (S)-1-(2-chloro-6-fluorobenzyl)-N-(2-fluoro-3-hydroxybenzyl)-3,4-dimethyl-2-oxo-1,2,3,4-tetrahydroquinazoline-7-carboxamide]
5.00 to 6.00 | CN1Cc2ccc(C(=O)NCc3c(F)cc(F)cc3F)cc2N(Cc2ccc(F)cc2Cl)C1=O [Example 17, 1-(2-chloro-4-fluorobenzyl)-3-methyl-2-oxo-N-(2,4,6-trifluorobenzyl)-1,2,3,4-tetrahydroquinazoline-7-carboxamide]
> 6.00 | CN1Cc2ccc(C(=O)NCc3c(F)cc(F)cc3F)cc2N(Cc2c(F)cccc2Br)C1=O [Example 11, 1-(2-bromo-6-fluorobenzyl)-3-methyl-2-oxo-N-(2,4,6-trifluorobenzyl)-1,2,3,4-tetrahydroquinazoline-7-carboxamide]
> 6.00 | CC1c2ccc(C(=O)NCc3c(F)cc(F)cc3F)cc2N(Cc2c(F)cccc2Cl)C(=O)N1C (racemic) [Example 74, 1-(2-chloro-6-fluorobenzyl)-3,4-dimethyl-2-oxo-N-(2,4,6-trifluorobenzyl)-1,2,3,4-tetrahydroquinazoline-7-carboxamide]
> 6.00 | C[C@H]1c2ccc(C(=O)NCc3cc(O)cc(F)c3)cc2N(Cc2c(F)cccc2Cl)C(=O)N1C [Example 250, (S)-1-(2-chloro-6-fluorobenzyl)-N-(3-fluoro-5-hydroxybenzyl)-3,4-dimethyl-2-oxo-1,2,3,4-tetrahydroquinazoline-7-carboxamide]
> 6.00 | C[C@H]1c2ccc(C(=O)NCc3c(F)cc(F)cc3F)cc2N(Cc2c(F)ccc(OCCCOP(=O)(O)O)c2F)C(=O)N1C [Example 104, (S)-3-(3-((3,4-dimethyl-2-oxo-7-((2,4,6-trifluorobenzyl)carbamoyl)-3,4-dihydroquinazolin-1(2H)-yl)methyl)-2,4-difluorophenoxy)propyl dihydrogen phosphate]
